# Experimental data taken from article PMC3835742, “Lack of Plasma Kallikrein-Kinin System Cascade in Teleosts” (PLoS ONE, 2013).
# “Also recorded” adds a separate entry of the source.
# How the values were obtained:
# [1] = Degradation rate of [Arg^0]-BK in plasma in vitro; type: in vitro ADME, Japanese eel; conditions: plasma with inhibitor cocktail (1,10-phenanthroline, potassium EDTA, aprotinin), spiked 3,000 fmol/mL, 25 °C, 0, 10 and 30 min, Sep-Pak extraction, RIA read-out, n = 3, Student t-test p > 0.05
# Method: (§1) Juvenile, sexually immature Japanese eel (Anguilla japonica; 160 - 220 g), tilapia (Oreochromis niloticus; 50 - 100g), rainbow trout (Oncorhynchus mykiss; 100 - 200 g), and adult medaka of both sex (Oryzias latipes; 1.5 - 2.2 g) were kept in a freshwater recirculating aquarium system in the Atmosphere and Ocean Research Institute, the University of Tokyo. The water was maintained at 12 °C for trout, 18 °C for eel, 25 °C for tilapia, and 27 °C for medaka, and all animals were exposed to a 14/10 h light/dark cycle throughout the experiment. All animal experimental procedures were approved by the Animal Experiment Committee of the University of Tokyo. Fish were anesthetized by 0.1% ethyl 3-aminobenzoate methanesulfonate (Sigma, St. Louis, MO) neutralized with sodium bicarbonate. […]
# (§2) To test the degradation rate of [Arg^0]-BK in plasma in vitro, 3 blood samples with inhibitor cocktail were prepared. […] The immunoreactive (ir)-[Arg^0]-BK was measured using the newly established RIA. […] The concentration of [Arg^0]-BK in the HPLC fractions were measured to determine the percentage recovery. Synthetic [Trp^5, Leu^8]-BK (BK) and [Arg^0, Trp^5, des-Leu^8, des-Arg^9]-bradykinin were serially diluted in RIA buffer and measured by RIA to determine the cross-reactivities among these closely related peptides.
# [2] = system: polyclonal antiserum for [Arg^0]-BK; assay: Radioimmunoassay (RIA) for [Arg^0, Trp^5, Leu^8]-bradykinin; type: binding, rabbit; conditions: for crossreactivity in the RIA: relative to [Arg^0]-BK standard, peptides serially diluted in RIA buffer, antiserum 1:10,000, 4 °C, 24 h
# Method: [Arg^0, Trp^5, Leu^8]-bradykinin ([Arg^0]-BK: RRPPGWSPLR) was synthesized by Phoenix Pharmaceuticals Inc. (Burlingame, CA, USA). [Arg^0]-BK was N-terminally conjugated to thyroglobulin by the glutaraldehyde method. Briefly, 5 mg thyroglobulin was mixed with 1 mg [Arg^0]-BK in 4 mL PBS (pH 7.0) and glutaraldehyde was added to a final concentration of 0.05 %. The mixture was incubated at 25 °C for 1 h with gentle agitation and reaction was stopped by addition of 0.1 mL ethanolamine. The mixture was dialyzed against 1 L PBS overnight at 4 °C and protein concentration was determined. For each injection, 0.2 mg conjugated protein was used and three rabbits were first immunized with the conjugated protein in Freund’s complete adjuvant followed by two booster immunogen injections in Freund’s incomplete adjuvant. The interval between injections was 4 weeks and the rabbits were sacrificed for final bleeds 3 weeks after the third immunization.
# Synthetic [Tyr^-1, Arg^0, Trp^5, Leu^8]-bradykinin (YRRPPGWSPLR) was radiolabeled by ^125I using the lactoperoxidase method and the iodinated peptide was purified by an HPLC system. The ^125I-BK was diluted in RIA buffer containing 0.1% RIA-grade bovine serum albumin to produce ~10,000 cpm per assay tube. The titers of the antiserum were determined by serial dilution and maximum binding was adjusted at 20 % of the total binding. […] Unbound fractions were removed by aspiration and specific binding in the pellet was measured using a gamma counter (Perkin Elmer, MA, USA). […]
# as §2
# [3] = Spiking of pooled plasma, Sep-Pak/HPLC extraction and RIA (recovery and integrity); design: species or system Japanese eel; conditions: pooled eel plasma with inhibitor cocktail spiked to 300, 1000, 3000 fmol/mL, ir-BK profile by RIA
# Method: as §1, with “Tokyo.” for “Tokyo. Fish were anesthetized by 0.1% ethyl 3-aminobenzoate methanesulfonate (Sigma, St. Louis, MO) neutralized with sodium bicarbonate.”
# The plasma samples were purified by Sep-Pak C18 cartridge, with equilibration buffer (100 mM Tris-HCl, 0.5 M NaCl, pH 7.4) for binding and absolute methanol for elution. The partially purified plasma was further resolved by a reverse-phase HPLC system (Tosoh PU-980, Tokyo) attached to a UV-absorbance detector (Tosoh, UV-970, Tokyo) and utilizing an analytical column (ODS 100S column, 4.6 mm I.D. x 25 cm, C-18, 5 μm particle size, Tosoh, Tokyo). […]
# To test the degradation rate of [Arg^0]-BK in plasma in vitro, 3 blood samples with inhibitor cocktail were prepared. […] The immunoreactive (ir)-[Arg^0]-BK was measured using the newly established RIA. […]
# [4] = system: eel; conditions: compared with BK, ref [14]; cited from earlier work
Substance,ir-[Arg^0]-BK content after incubation in plasma [1],"EC50 ([2]; displacement of 125I-[Tyr^-1, Arg^0, Trp^5, Leu^8]-bradykinin tracer, antiserum 1:10,000, 4 °C for 24 h, gamma counter, measurements in duplicate)",integrity of spiked [Arg^0]-BK in plasma (conversion to BK) [3],potency in eliciting cardiovascular and antidipsogenic effects [4],crossreactivity in the RIA [2]
"RRPPGWSPLR [[Arg^0]-BK, [Arg^0, Trp^5, Leu^8]-bradykinin, synthetic teleost decapeptide kinin, […], from Phoenix Pharmaceuticals]",did not alter the peptide contents; also recorded: not statistically different among various time points,550 pM,remained as a single ir-peak; also recorded: remained intact,more potent than BK,
"[Arg^0, Trp^5, des-Leu^8, des-Arg^9]-bradykinin [[Arg^0, Trp^5, des-Leu^8, des-Arg^9]-BK]",,,,,negligible crossreactivity
"[Trp^5, Leu^8]-BK",,,,,71.3%
